The source of these data is publication PMC10954796, “Post-translational modifications of beta-amyloid alter its transport in the blood-brain barrier in vitro model” (Frontiers in Molecular Neuroscience, 2024).

The assay deals with T1, sRAGE (Homo sapiens, UniProt Q15109).
T1 construct: the soluble extracellular part of RAGE (sRAGE); purchased Abcam
The experiment in a line: Microscale thermophoresis, interaction with sRAGE. Particulars: MST, Monolith NT.115; 50 nM RED-tris-NTA-labeled His-tag sRAGE; peptide 6.1 nM to 200 μM; 4% DMSO, 20% glycerol; mean ± SD, n = 4–5; read-out: dissociation constant (Kd) with sRAGE. The assay is classed as binding.

Ends that are not written are not given here.

T1 sequence (Q15109 23-342 limits assumed): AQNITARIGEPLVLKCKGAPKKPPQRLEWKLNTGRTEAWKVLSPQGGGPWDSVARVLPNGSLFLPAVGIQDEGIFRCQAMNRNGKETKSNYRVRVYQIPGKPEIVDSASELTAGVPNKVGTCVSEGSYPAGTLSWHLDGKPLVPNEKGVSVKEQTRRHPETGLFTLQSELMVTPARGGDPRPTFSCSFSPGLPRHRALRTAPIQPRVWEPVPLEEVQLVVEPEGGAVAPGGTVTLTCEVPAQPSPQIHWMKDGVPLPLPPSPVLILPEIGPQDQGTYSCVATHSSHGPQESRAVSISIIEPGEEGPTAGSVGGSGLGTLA

Turning to LVFFAEDVGSNKGAIIGLMVGGVVIA [Aβ17 − 42], the Kd came out at 10 ± 5 µM.
